Data from US20070254882A1, “Sulfamide Derivatives and Pharmaceutical Composition for Upregulation of Lipid Metabolism Comprising Same” (CRYSTAL GENOMICS, INC., priority 2004, published 2007).

What was measured:
human PPAR α [1] = target: T1, human PPAR α (Homo sapiens, UniProt Q07869); assay: Exogeneous PPAR α agonist assay (GAL4 DNA binding domain/PPAR α ligand binding domain, luciferase) in 293T cells; type: cell-based; parameters: scale not given here; details: 25 μM compound, 48 hours, luciferase activity increase relative to the control
T1 construct: expressed in transfected cells; host or cells: HepG2 (ATCC HB-8065) or 293T cells (ATCC CRL-1573)
T1 sequence (Q07869 239-466 limits assumed): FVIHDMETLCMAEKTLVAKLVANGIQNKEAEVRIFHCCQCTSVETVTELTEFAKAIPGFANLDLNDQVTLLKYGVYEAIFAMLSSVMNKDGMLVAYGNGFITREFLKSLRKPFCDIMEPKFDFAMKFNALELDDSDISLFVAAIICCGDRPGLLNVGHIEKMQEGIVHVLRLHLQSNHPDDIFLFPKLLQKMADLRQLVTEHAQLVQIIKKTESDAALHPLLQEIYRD
In short: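 HepG2 or 293T cells (2×10^4/well) lipofectamine-transfected 3 hours with PPAR α, UAS firefly-luciferase and Renilla-luciferase constructs. Compounds then added at 25 μM final and incubated 48 hours at 37° C. PPAR α activation measured as dual firefly/Renilla luciferase luminescence.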

human PPAR α [2] = target: T1, human PPAR α; assay: Exogeneous PPAR α agonist assay (GAL4 DNA binding domain/PPAR α ligand binding domain, luciferase) in HepG2 cells; type: cell-based; details: 25 μM compound, 48 hours, luciferase activity increase relative to the control
Description: Step 1) Exogeneous PPAR α Agonist Assay
Cross-activation assay of the compounds of Examples 1 to 134 against human PPAR α was carried out using a DNA construct of PPAR α including its ligand binding domain and GAL4 DNA binding domain (Sher et al., Biochemistry 32, 5598-5604, 1993) to analyze whether any of the compounds binds to the ligand binding domain of PPAR α expressed by the construct to affect the PPAR α activity. When the GAL4 DNA binding domainm which is fused with PPAR α ligand binding domain, binds to UAS (upstream activation sequence) of firefly-luciferase, the luciferase is expressed. Therefore, the effect of each of the compounds of Examples on PPAR α activation can be evaluated by analyzing the activation of luciferase.
Specifically, 2×10^4 of HepG2 (ATCC HB-8065) or 293T cells (ATCC CRL-1573) were aliquotted into each well of a 96-well plate and cultured for overnight at 37° C. in a CO2 incubator (culture condition: DMEM, 10% FBS and 1% antibiotics).
The transformation of PPAR α DNA was traced as follows. First, a mixture of the following ingredients in amounts per well; Solution A (Promega) containing 50 ng of full length human PPAR α DNA, 50 ng of firefly-luciferase construct, 5 ng of Renilla-luciferase construct, 1.0 μl of PLUS™ reagent, and 8.3 μl of a serum-free medium containing no antibiotics; was prepared and kept at room temperature for 15 min. Solution B, which contained 0.5 μl of Lipofectamine™ reagent and 9.5 μl of serum-free medium without antibiotics per well, and Solution C, which contained 50 μl of serum-free medium per well), were prepared. Solutions A, B and C were mixed together to prepare lipofectamin-DNA complex, and the mixture was kept at room temperature for 15 min. Single layer of cells on each well of a 96-well plate were washed with serum-free DMEM, 70 μl of lipofectamine-DNA complex prepared above was added thereto, the plate was incubated at 37° C. in a 5% CO2 incubator for 3 hours to transform the cells, and […] of a diluted solution of each of the compounds of Examples 1 to 134 per well was added to each well to a final concentration 25 μM, and incubated at 37° C. in a CO2 incubator for 48 hours. Then, the medium was removed, 50 μl of passive lysis buffer (Promega) was added thereto, and the plate was shook at room temperature for 20 min to lysis cells. 40 μl of Luciferase Assay reagent of Dual Luciferase Kit […] per 20 μl of cell lysis buffer was added to the plate, followed by reacting at 20° C. for 8 seconds, and 40 μl of Stop & Glo reagent (Promega) as a stop solution was added thereto to quench the reaction. The luminescence intensities of F-luciferase and R-luciferase were measured with MicroLumat Plus (Berthord Technology).

ob/ob mice = assay: Anti-obesity test: lipid metabolism-related materials and glucose in blood of ob/ob mice; type: in vivo; details: 100 mg/kg oral twice a day, 28 days, fasted 16 hours, plasma
Description: In order to evaluate the anti-obesity activity of the inventive compound, B6.V-Lepob/J mice (laboratory animal team of Korea Research Institute of Chemical Technology) were used for tests and lean mice as a control. Ob/ob mice are model animals for insulin-independent diabetes, suitable for studying the effect of an anti-obesity drug.
42 mice weighing 38.6±1.4 g were selected randomly from a pool of ob/ob mice (7-9 weeks old), and divided into groups of 7 mice each. The test was carried out at a constant temperature (24±0.5° C.) and humidity (55±5%) using ventilation system (10-12 times/hour), under a specific pathogen free (SPF) condition created in an automatic on-off cycle of 12 hours.
The groups were divided to a control group treated only with an excipient, a positive control group treated with fenofibrate, and test groups treated with each of the compounds of Examples 5, 62 and 65, at dosage 100 mg/10 ml/kg body weight. Each of the test and control compounds was diluted with 0.5% CMC to a concentration to match the above dosage, and administered orally using a syringe into the stomach twice a day (9:00 and 18:00) for a period of 4 weeks, and the following characteristics were measured.
3) Measurement of Lipid Metabolism-Related Materials and Insulin Concentration in Blood
28 days after the administration, experimental mice were fasted for 16 hours, and the concentrations of lipid metabolism-related materials such as triglyceride, free fatty acid and cholesterol, and insulin in blood were measured. Specifically, a blood sample was collected from the ocular venous plexus of each mouse and centrifuged to separate plasma. The glucose (GLU), HDL-cholesterol (HDL), LDL-cholesterol (LDL), triglyceride (TG) and free fatty acid (NEFA) levels were measured by enzymatic assay using 2 kinds of Selectra (Vital Lab), an automatic biochemical analyzer, and the insulin concentration was measured by ELISA using an insulin detection kit (Shibayagi).

Row | Activity at 25 μM Step 1 293T cell (human PPAR α [1]) | Activity at 25 μM Step 1 HepG2 cell (human PPAR α [2]) | Compound | also measured
1 | 5 | 40 | CCN(c1cccc(C)c1)S(=O)(=O)N(CC(=O)O)Cc1cccc(OCc2nc(-c3ccc(C(F)(F)F)cc3)oc2C)c1 [Example 21, [N—(N-ethyl-N-m-tolylamino)sulfonyl-N-[3-[[2-(4-trifluoromethylphenyl)-5-methyloxazol-4-yl]methoxy]benzyl]amino]acetic acid] | 
2 | 2 | 40 | C=CCN(C)S(=O)(=O)N(CC(=O)O)Cc1cccc(OCCc2nc(-c3ccc(C(F)(F)F)cc3)oc2C)c1 [Example 69, [N—(N-allyl-N-methylamino)sulfonyl-N-[3-[2-[2-(4-trifluoromethylphenyl)-5-methyloxazol-4-yl]ethoxy]benzyl]amino]acetic acid] | 
3 | 4 | 49 | COc1ccc(N(C)S(=O)(=O)N(CC(=O)O)Cc2cccc(OCc3nc(-c4ccc(C(F)(F)F)cc4)oc3C)c2)cc1 [Example 22] | 
4 | 4 | 44 | Cc1oc(-c2ccc(C(F)(F)F)cc2)nc1COc1cccc(CN(CC(=O)O)S(=O)(=O)N2CCCCC2)c1 [Example 11, [N-(piperidinyl)sulfonyl-N-[3-[[2-(4-trifluoromethylphenyl)-5-methyloxazol-4-yl]methoxy]benzyl]amino]acetic acid] | 
5 | 3 | 45 | C#CCN(C)S(=O)(=O)N(CC(=O)O)Cc1cccc(OCc2nc(-c3ccc(C(F)(F)F)cc3)oc2C)c1 [Example 10, [N—(N-methyl-N-propargylamino)sulfonyl-N-[3-[[2-(4-trifluoromethylphenyl)-5-methyloxazol-4-yl]methoxy]benzyl]amino]acetic acid] | 
6 | 3 | 52 | C=CCN(C)S(=O)(=O)N(CC(=O)O)Cc1cccc(OCc2nc(-c3ccc(C(F)(F)F)cc3)oc2C)c1 [Example 9, [N—(N-allyl-N-methylamino)sulfonyl-N-[3-[[2-(4-trifluoromethylphenyl)-5-methyloxazol-4-yl]methoxy]benzyl]amino]acetic acid] | 

The remaining lines, values behind:

Row | Compound | Activity at 25 μM Step 1 293T cell (human PPAR α [1]) | Activity at 25 μM Step 1 HepG2 cell (human PPAR α [2]) | also measured
7 | CN(C)S(=O)(=O)N(CC(=O)O)Cc1cccc(OCCc2coc(-c3ccccc3)n2)c1 [Example 131, [N—(N,N-dimethylarino)sulfonyl-N-[3-[(2-phenyloxazol-4-yl)ethoxy]benzyl]amino]acetic acid] | 5 | 41 | 
8 | CC(C)OC(=O)C(C)(C)Oc1ccc(C(=O)c2ccc(Cl)cc2)cc1 [fenofibrate, reference compound] |  |  | GLU (glucose) (ob/ob mice): 223.1 ± 77.2 mg/dL; HDL (HDL-cholesterol) (ob/ob mice): 280.5 ± 28.5 mg/dL; LDL (LDL-cholesterol) (ob/ob mice): 27.0 ± 4.7 mg/dL; NEFA (free fatty acid) (ob/ob mice): 1,003 ± 80 UEq/l; TG (triglyceride) (ob/ob mice): 49.4 ± 6.1 mg/dL
9 | Cc1ccc(-c2nc(COc3cccc(CN(CCC(=O)O)S(=O)(=O)N(C)C)c3)c(C)o2)cc1 [Example 130, 3-[N—(N,N-dimethylamino)sulfonyl-N-[3-[(5-methyl-2-p-tolyloxazol-4-yl)methoxy]benzyl]amino]propionic acid] | 4 | 36 | 
10 | Cc1oc(-c2ccc(C(F)(F)F)cc2)nc1CCOc1cccc(CN(CC(=O)O)S(=O)(=O)N2CCCCC2)c1 [Example 71, [N-(piperidinyl)sulfonyl-N-[3-[2-[2-(4-trifluoromethylphenyl)-5-methyloxazol-4-yl]ethoxy]benzyl]amino]acetic acid] | 2 | 44 | 
11 | CCN(c1cccc(C)c1)S(=O)(=O)N(CC(=O)O)Cc1ccc(OCCc2nc(-c3ccc(C)cc3)oc2C)cc1 [Example 111, [N—(N-ethyl-N-m-tolylamino)sulfonyl-N-[4-[2-[2-(4-methylphenyl)-5-methyloxazol-4-yl]ethoxy]benzyl]amino]acetic acid] | 5 | 25 | 
12 | Cc1ccc(-c2nc(CCOc3ccc(CN(CC(=O)O)S(=O)(=O)N(C)c4cccc(F)c4)cc3)c(C)o2)cc1 [Example 113, [N—[N-(3-fluorophenyl)-N-methylamino]sulfonyl-N-[4-[2-[2-(4-methylphenyl)-5-methyloxazol-4-yl]ethoxy]benzyl]amino]acetic acid] | 4 | 29 | 
13 | CCN(CC)S(=O)(=O)N(CC(=O)O)Cc1ccc(OCCc2nc(-c3ccc(C)cc3)oc2C)cc1 [Example 101, [N—(N,N-diethylamino)sulfonyl-N-[4-[2-[2-(4-methylphenyl)-5-methyloxazol-4-yl]ethoxy]benzyl]amino]acetic acid] | 4 | 45 | 
14 | CCN(CC)S(=O)(=O)N(CC(=O)O)Cc1cccc(OCCc2nc(-c3ccc(C)cc3)oc2C)c1 [Example 63, [N—(N,N-diethylamino)sulfonyl-N-[3-[2-[2-(4-methylphenyl)-5-methyloxazol-4-yl]ethoxy]benzyl]amino]acetic acid] | 3 | 33 | 
15 | CN(C)S(=O)(=O)N(CC(=O)O)Cc1ccc(OCCc2coc(-c3ccccc3)n2)cc1 [Example 132, [N—(N,N-dimethylamino)sulfonyl-N-[4-[(2-phenyloxazol-4-yl)ethoxy]benzyl]amino]acetic acid] | 5 | 32 | 
16 | Cc1ccc(-c2nc(COc3cccc(C(C)N(CC(=O)O)S(=O)(=O)N(C)C)c3)c(C)o2)cc1 (stereo not shown) [Example 126, [N—(N,N-dimethylamino)sulfonyl-N-[1-[[3-(5-methyl-2-p-tolyloxazol-4-yl)methoxy]phenyl]ethyl]amino]acetic acid] | 4 | 62 | 
17 | CN(c1ccc(Cl)cc1)S(=O)(=O)N(CC(=O)O)Cc1ccc(OCCc2coc(-c3ccccc3)n2)cc1 [Example 133, [N—[[N-(4-chlorophenyl)-N-methyl]amino]sulfonyl-N-[4-[(2-phenyloxazol-4-yl)ethoxy]benzyl]amino]acetic acid] | 4 | 34 | 
